Where “and” joins values, the source holds several entries; their conditions need not be identical. Equal values may be shown once.
Biological target: Aldose reductase (Capra hircus)
Assay: The reaction mixture contained 1 mL of 1 M potassium phosphate buffer (pH 6.2), 0.4 mM lithium sulfate and 5 µM 2-mercaptoethanol, 10 µM DL-glyceraldehyde, […], and crude enzyme. The reaction mixture was incubated at 37 °C for 10 min. The reaction was initiated by the addition of NADPH and the decrease in absorbance was measured a

Row | IC50 | SMILES
1 | 11.9 µM and 12.8 µM | NC(=S)N1C=C(N)C(=Cc2ccc(F)cc2)C1=O [(3Z)‐4‐amino‐3‐[(4‐methoxyphenyl)methylidene]‐2‐ oxopyrrole‐1‐carbothioamide (2c)]
2 | 6.3 µM | NC(=S)N1N=C(N)C(=Cc2cn(-c3ccccc3)nc2-c2ccc(Cl)cc2)C1=O [(4E)‐3‐amino‐4‐{[3‐(4‐chlorophenyl)‐1‐ phenylpyrazol‐4‐yl]methylidene}‐5‐oxopyrazole‐1‐ carbothioamide (2e)]
3 | 9.2 µM | NC1=NNC(=O)C1=Cc1cn(-c2ccccc2)nc1-c1ccc(Cl)cc1 [(4E)‐5‐amino‐4‐{[3‐(4‐chlorophenyl)‐1‐ phenylpyrazol‐4‐yl]methylidene}‐2H‐pyrazol‐3‐one (1e)]
4 | 8.1 µM | COc1ccc(-c2cc(C=C3C(=O)N(C(N)=S)N=C3N)n(-c3ccccc3)n2)cc1 [(4Z)‐3‐amino‐4‐{[5‐(4‐methoxyphenyl)‐2‐ phenylpyrazol‐3‐yl]methylidene}‐5‐oxopyrazole‐1‐ carbothioamide (2d)]

Reference: BindingDB's records for doi:10.1016/j.bioorg.2014.02.002 (Swami Ramanand Teerth Marathwada University, 2014)
